What all share (test): Cytotoxicity in vitro in the presence and absence of elastase (MTT assay)
Type in all cases: cell-based

One assay concerns HT29. Particulars: HT29 cells, 72 h incubation. The protocol: (§1) Cultivation of cells was performed according to standard procedures with the media recommended by the provider. The cells, in a total volume of 100 μL, were seeded in a 96-well plate with a white bottom (#3610). After a 24 h incubation period at 37° C. and 5% CO2, the medium was exchanged by adding 90 μL fresh medium. The treatment started by adding the test compound in 10 μL of culture medium to the cells in triplicates. Concentrations ranging from 10^−5 M to 10^−13 M were chosen. Two identically treated sets of samples were prepared. One set was treated with the test compound alone, whereas to the second set the compound and 10 nM elastase (NE) was added followed by a 72 h incubation period at 37° C. and 5% CO2. The proliferation was detected using the MTT assay (ATCC). At the end of the incubation period the MTT reagent was added to all samples for 4h. Lysis of the cells followed by addition of the detergent was done overnight. The formed dye was detected at 570 nm. The proliferation of untreated but otherwise identically handled cells was defined as the 100% value. The dose response curves allowed the determination of the respective IC50 values. […]

Another assay concerns NCI-H292. Particulars: NCI-H292 cells, 72 h incubation. The procedure: as §1
The subject of the next assay is SUM149PT. Particulars: SUM149PT cells, 72 h incubation. The protocol:
as §1

The test system of a further assay is 786-O. Particulars: 786-O cells, 72 h incubation. The procedure:
as §1

The mark [1] stands for this setting: compound alone, read-out: IC50 without neutrophil elastase.
Where [2] appears, read: with 10 nM elastase (NE), read-out: IC50 with neutrophil elastase.

Like-named read-outs stand apart in the source and are kept apart here.

Usually IC50 stands for the concentration needed to halve the response being measured.

With `CC(C)[C@H](NC(=O)[C@@H]1CCCN1C(=O)[C@H](CC(=O)O)NC(=O)CCOCCOCCOCCNC(=O)NCCCC[C@H](NC(=O)N[C@@H](CCC(=O)O)C(=O)O)C(=O)O)C(=O)N=S(C)(=O)Cc1cc2nc(c1)OCCCOc1cc(F)ccc1-c1cc(ncc1F)N2` (relative stereo) [Compound 9, tetrasodium 1-[(2S,23S,27S)-23,27,29-tricarboxylato-2-(carboxylatomethyl)-4,17,25-trioxo-7,10,13-trioxa-3,16,18,24,26-pentaazanonacosanan-1-oyl]-L-prolyl-N—[(R*)—{[15,19-difluoro-3,4-dihydro-2H,11H-10,6-(azeno)-12,16-(metheno)-1,5,11,13-benzodioxadiazacyclooctadecin-8-yl]methyl}(methyl)oxo-lambda6-sulfanylidene]-L-valinamide], the concentration for half-maximal inhibition (IC50) in the assay with HT29 (setting [1]) was in the range of 100 to 999 nM; in the assay with HT29 (setting [2]), 1 to 9.9 nM; in the assay with NCI-H292 (setting [1]) it was 100 to 999 nM; in the assay on NCI-H292 (setting [2]), 1 to 9.9 nM; in the assay on SUM149PT (setting [1]), 100 to 999 nM; with SUM149PT (setting [2]) it was 1 to 9.9 nM. Besides, the figures for the 50% inhibitory concentration (IC50) with 786-O (setting [1]) and in the assay on 786-O (setting [2]) were 100 to 999 nM and 1 to 9.9 nM, respectively.

For `CC[C@@]1(OC(=O)[C@@H](NC(=O)[C@@H]2CCCN2C(=O)[C@H](CC(=O)O)NC(=O)CCOCCOCCOCCNC(=O)CCC(=O)Nc2nnc(S(N)(=O)=O)s2)C(C)C)C(=O)OCc2c1cc1n(c2=O)Cc2c-1nc1cc(F)c(C)c3c1c2[C@@H](N)CC3` [Compound 12, sodium (1S,9S)-1-amino-9-ethyl-5-fluoro-4-methyl-10,13-dioxo-2,3,9,10,13,15-hexahydro-1H,12H-benzo[de]pyrano[3′,4′:6,7]indolizino[1,2-b]quinolin-9-yl 1-{(2S)-2-(carboxylatomethyl)-4,17,20-trioxo-20-[(5-sulfamoyl-1,3,4-thiadiazol-2-yl)amino]-7,10,13-trioxa-3,16-diazaicosanan-1-oyl}-L-prolyl-L-valinate], the IC50 in the assay on HT29 (setting [1]) was more than 1000 nM; in the assay with HT29 (setting [2]), 10 to 99 nM; in the assay on NCI-H292 (setting [1]), 100 to 999 nM; in the assay on NCI-H292 (setting [2]) it was 1 to 9.9 nM; with SUM149PT (setting [1]) it was 100 to 999 nM; with SUM149PT (setting [2]) it was 1 to 9.9 nM. Besides, the IC50 was in the range of 100 to 999 nM in the assay on 786-O (setting [1]) and 1 to 9.9 nM in the assay on 786-O (setting [2]).

Consider `CCCNC(=O)Nc1cccc(S(=O)(=O)Nc2cccc([C@@H](CC(=O)O)NC(=O)Nc3ccc(NC(=O)NCCOCCOCCOCCC(=O)N[C@@H](CC(N)=O)C(=O)N4CCC[C@H]4C(=O)N[C@H](C(=O)NCCCN(C(=O)CO)[C@@H](c4cc(-c5cc(F)ccc5F)cn4Cc4ccccc4)C(C)(C)C)C(C)C)cc3)c2)c1` [Compound 16, N^2-(14-{4-[({(1R)-2-carboxy-1-[3-({3-[(propylcarbamoyl)amino]benzene-1-sulfonyl}amino)phenyl]ethyl}carbamoyl)amino]anilino}-14-oxo-4,7,10-trioxa-13-azatetradecanan-1-oyl}-L-asparaginyl-L-prolyl-N-{3-[{(1R)-1-[1-benzyl-4-(2,5-difluorophenyl)-1H-pyrrol-2-yl]-2,2-dimethylpropyl}(hydroxyacetyl)amino]propyl}-L-valinamide], for which the half-inhibitory concentration (IC50) with HT29 (setting [1]) was more than 1000 nM; in the assay on HT29 (setting [2]), 1 to 9.9 nM; with NCI-H292 (setting [1]), 100 to 999 nM; in the assay on NCI-H292 (setting [2]), 1 to 9.9 nM; in the assay on SUM149PT (setting [1]), 100 to 999 nM; with SUM149PT (setting [2]) it was 0.1 to 1 nM. Moreover, the IC50 with 786-O (setting [1]) was more than 1000 nM; with 786-O (setting [2]) it was 1 to 9.9 nM.

The values above are taken from patent US20260183405A1, “SMALL MOLECULE-DRUG-CONJUGATES CLEAVABLE IN A TUMOR MICROENVIRONMENT” (priority 2022, published 2026).
